From patent publication US20070275935A1, “Estratriene Derivatives” (priority 2003, published 2007) come the findings set out here.

In test [1] the test system is Human airway smooth muscle (HASM) cells. In words: Thrombin-induced proliferation of human airway smooth muscle (HASM) cells, cell number after 48 h. Conditions: for IC50: Homo sapiens, read-out: HASM-Thr pIC50 (converted); for HASM- Thr pIC25 / HASM- Thr pIC75: two site model, thrombin-induced proliferation; for HASM- Thr pIC25: first phase (inhibition up to 50%); for HASM- Thr pIC75: second phase (inhibition up to 100%). The format is cell-based. As for the experimental part: Human airway smooth muscle (HASM) cells were cultured from macroscopically normal bronchi (0.5-2 cm diameter) obtained from lung resection or heart-lung transplant specimens provided by the Alfred Hospital (Melbourne) according to methods published in detail previously (Fernandes et al., 1999).
Approximately 0.1 g of smooth muscle was stripped from the wall of the bronchus for each cell culture. Dissected tissue was immersed in Dulbecco's modified Eagle's medium (DMEM) (Flow Laboratories, Scotland), supplemented with 100 U/mL penicillin G (CSL, Australia) and 100 ug/mL streptomycin (CSL, Australia). The tissue was rinsed in phosphate buffered saline (PBS; Oxoid, England) and the airway smooth muscle was chopped into 2 mm^3 pieces and digested for 2 hours in DMEM containing elastase (0.5 mg/mL: Worthington Biochemical, USA) followed by a 12 hour incubation in DMEM containing collagenase (1 mg/mL) (Worthington Biochemical, USA), at 37° C. with agitation.
The resulting cell suspension was centrifuged and washed three times in phosphate buffered saline (PBS). Following the last centrifugation step, the cells were resuspended in 25 mL of DMEM supplemented with L-glutamine (2 mM: Sigma, USA), penicillin G (100 U/mL), streptomycin (100 μg/mL), amphotericin B (2 μg/mL: Wellcome, UK) and heat-inactivated FCS (10% v/v: CSL, Australia) and seeded into 25 cm^2 culture flasks. The primary isolates were incubated for 7 to 14 days to reach confluence.
Cells were harvested weekly by 10 min exposure to trypsin (0.5%: CSL, Australia) and EDTA (1 mM in PBS: BDH, Australia) and passaged at a 1:3 ratio into 75 cm^2 flasks.
The activity of the compounds has been established in cell culture by exploring their effects on mitogen-induced increases in cell number. We investigated the effects of 2MEO and its analogues, 4NO and 4NOM, on the proliferation of HASM cells in response to the proliferative stimulus of either thrombin of basic fibroblast growth factor (bFGF). Cells were seeded onto 6-well plates at a density of 1.5×10^4 cells cm^2, made quiescent by removal of serum-containing media for 24 hours and then stimulated for 48 h with either thrombin (0.3 U/ml) or bFGF (300 pM). The test compounds were pre-incubated with HASM cells for 30 minutes before the addition of thrombin. At the end of the 48 hour incubation period, cells were detached from the culture plate by trypsin (0.5% w/v in PBS containing 1 mM EDTA), incubated for 5 minutes at ambient temperature in PBS containing 0.5% (w/v) trypan blue, washed twice (2% FCS in PBS), isolated by centrifugation (12,000×g, 5 min) and resuspended in 200 μl 2% FCS in PBS for counting in a haemocytometer chamber.
Data are expressed as a percentage of the cell number in vehicle treated wells and are presented as the mean and standard error of the mean.
The potency of the compounds in regulating thrombin-induced proliferation of human airway smooth muscle (HASM) was assessed in cells maintained in culture as described above. The potencies are presented as pIC50 values (Column A of Table 4) denoting the negative log of the concentration that reduces the proliferative response by 50%. […] When the single phase model was determined to be more appropriate, the values of pIC25 and pIC75 were not calculated or shown in the table.

A further test concerns the target T1, Estrogen Receptor (ER) (Rattus norvegicus, UniProt P06211).
T1 construct: using rat uterine cytosol as a source of ER; from tissue; host or cells: rat uterus, cytosol fraction (30000 x g supernatant)
T1 sequence (P06211 1-600): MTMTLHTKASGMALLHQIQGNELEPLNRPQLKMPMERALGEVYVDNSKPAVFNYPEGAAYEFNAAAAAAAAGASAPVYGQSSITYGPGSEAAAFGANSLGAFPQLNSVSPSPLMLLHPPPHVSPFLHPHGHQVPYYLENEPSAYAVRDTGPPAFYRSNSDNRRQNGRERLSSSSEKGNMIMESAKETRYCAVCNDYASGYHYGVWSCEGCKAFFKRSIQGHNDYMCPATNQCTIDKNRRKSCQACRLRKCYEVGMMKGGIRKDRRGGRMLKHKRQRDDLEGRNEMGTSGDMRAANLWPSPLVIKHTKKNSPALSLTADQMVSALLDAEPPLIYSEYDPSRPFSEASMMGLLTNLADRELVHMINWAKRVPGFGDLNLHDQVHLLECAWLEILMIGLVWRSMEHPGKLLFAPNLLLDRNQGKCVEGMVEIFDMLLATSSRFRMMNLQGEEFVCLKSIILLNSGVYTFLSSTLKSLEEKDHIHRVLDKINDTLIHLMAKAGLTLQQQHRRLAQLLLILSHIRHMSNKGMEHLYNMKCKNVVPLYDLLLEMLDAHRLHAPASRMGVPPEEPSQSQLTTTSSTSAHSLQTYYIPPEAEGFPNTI
Kind of test: Estrogen receptor binding assay, 3H-estradiol displacement from rat uterine cytosol. Conditions: 3H-estradiol displacement, cytosolic preparations of rat uterus; pIC50 of 4.00 = inactive; read-out: ER-RLB pIC50 (converted). On the procedure: Uteri (6-10 per batch) were isolated from Brown Norway rats (250-350g), washed free from blood in saline and homogenised in 10 mM Tris buffer (pH 7.4, 1.5 mM EDTA, 10% w/v glycerol, 1 mM phenylmethylsulfonylfluoride) using an Ultra Turrax homogeniser for 3 by 15 s bursts with intervals of 1 min on ice.
Nuclear material and cellular debris were removed by centrifugation at 750×g at 4° C. for 10 min (Sorvall RT7); the cytosol component was prepared by centrifugation at 30000×g for 120 min at 4° C. in a Beckman JM1 centrifuge. The cytosol was diluted to approximately 1 mg/ml protein (rat uterine extract) determined using the Bradford method (Biorad).
Separation of bound from free radioligand was achieved by the addition of 500 μL of dextran-coated charcoal (400 mg dextran clinical grade C and 2g of charcoal, Norit A in 100 mL of Tris buffer) and centrifugation at 4° C. in a Sorval RT7 at 2000×g for 10 min.

Test [2] concerns human breast tumour cell line, MCF7. In words: Proliferation of MCF7 cells in response to 5% FCS or EGF. The format is cell-based. The following applies: Homo sapiens, MCF7; proliferation in response to 5% FCS; pIC50 of 4.00 = inactive. As for the experimental part:
(§1) The effects of 4NO were evaluated in a number of non-smooth muscle cell types including the type II airway epithelial cell line, A549 (ATCC accession number ATCC CCL-185 Lung carcinoma human) (FIG. 2); the human breast tumour cell line, MCF7, (ATTC accession number ATCC HTB-22 breast adenocarcinoma, human) which expresses the estrogen receptor (FIG. 3); and in bovine aortic endothelial cells (BAEC) (FIG. 4).
(§2) The effects of test compounds were examined on proliferation of A549 cells in response to 5% fetal calf serum (FCS). Analogues were pre-incubated with A549 cells for 30 min before the addition of FCS. The incubation continued for 48 h before cell enumeration. Data are expressed as a percentage of the cell number in vehicle treated wells and are presented as the mean and standard error of the mean. Similarly the effects of 2MEO and 4NO on proliferation of MCF7 in response to 5% FCS or epidermal growth factor (EGF, 300 pM) were examined, as were the effects of 2MEO and 4NO on proliferation of BAEC in response to 5% FCS. The incubation parameters were the same as described above and results are presented as the mean and standard error of the mean.
(§3) This assay was also used to evaluate the ability of other compounds to inhibit the proliferation of non-smooth muscle cells MCF7 and A549 (described above) in response to 5% FCS. The results of this assay are presented in Table 4 (columns G and H respectively). The potency of the compounds was considerably less in inhibiting proliferation of these cell lines than it was for HASM. These observations support the contention that there are cell type-specific targets for the actions of these compounds. Such assays may also be adopted to examine the effect of other disclosed compounds on these cells or on other non-smooth muscle cells of interest.

Another test relates to Pulmonary fibroblasts. In words: bFGF-induced proliferation of human pulmonary fibroblasts. The format is cell-based. The following applies: inhibition of bFGF (300 pM)-induced proliferation, mean and SEM, minimum 3 experiments; 1 μM; * not defined. As for the experimental part:
Samples of parenchyma from human lung transplant recipients were dissected away from the pleura, chopped into fragments of less than 1 mm^2 and allowed to adhere to plastic culture dishes in a minimal volume of DMEM containing serum (10%) and antibiotics (as used for HASM culture). After the tissue fragments had adhered to the base of the dish additional medium was added. Medium was changed twice weekly until an explant culture formed, at which time the tissue fragments were removed and the cells were passaged in a 1:3 split ratio by exposure to trypsin weekly to produce pulmonary fibroblast cultures.
Pulmonary fibroblasts were cultured in DMEM, serum-deprived for 24 h, in the presence or absence of the test compounds, and then stimulated with 300 pM bFGF for 48 h before harvest and counting of viable cells. An increase pulmonary fibroblast cell number was prevented by 4NOM over the concentration range of 1 to 1000 nM.
A range of the disclosed compounds was subsequently examined using the above assay system, and the results are summarized in Column E of Table 4. […] The proliferation of parenchymal fibroblasts is important in the development of pulmonary fibrosis.

Test [3] deals with type II airway epithelial cell line, A549. Kind of test: Proliferation of A549 cells in response to 5% FCS. Type of test: cell-based, human. Conditions: Homo sapiens. On the procedure:
as §1, §2, §3

Test [4] relates to GM-CSF production by Human Airway Smooth Muscle Cells. In words: Interleukin-1α-mediated GM-CSF production by HASM cells (ELISA). The format is cell-based. Conditions: inhibition of interleukin-1α (1 ng/ml)-mediated GM-CSF production; concentration not given; * not defined.
The mark [5] stands for this setting: negative log of the concentration that reduces the thrombin-induced proliferative response by 50%, pIC50 of 4.00 = inactive.
Setting [6] is: A549, proliferation in response to 5% FCS, pIC50 of 4.00 = inactive, read-out: A549 PIC50 (converted).

Like-named read-outs stand apart in the source and are kept apart here.

As for `C[C@]12CC[C@@H]3c4ccc(O)cc4CC[C@H]3[C@@H]1CC/C2=N\OCc1ccc([N+](=O)[O-])cc1` [CP-DM-3-101, estrone-17-(4-nitrobenzyl)oxime], the IC50 in test [1] (setting [5]) was 1910 nM; on Estrogen Receptor (ER), 2.4 µM; in test [2], 12.6 µM. For the same compound, in test [1], the “HASM- Thr pIC25” value is 6.27. In test [1], the “HASM- Thr pIC75” value turned out to be 5.06.
Consider `COc1cc2c(cc1O)CC[C@@H]1[C@@H]2CC[C@]2(C)/C(=N/OCc3cccc([N+](=O)[O-])c3)CC[C@@H]12` [CP-DM-3-104, 2-methoxyestrone-17-(3-nitrobenzyl)oxime], for which the IC50 in test [1] (setting [5]) was 550 nM. Moreover, in test [1], the “HASM- Thr pIC25” value is 7.16 and the “HASM- Thr pIC75” value worked out at 5.02. This compound showed an IC50 in test [2] of 8.51 µM.
Take `COc1cc2c(cc1O)/C(=N/Nc1ccc([N+](=O)[O-])cc1[N+](=O)[O-])C[C@@H]1[C@@H]2CC[C@]2(C)/C(=N/O)CC[C@@H]12` [CP-DM-3-119, 2-methoxy-6-(2,4-dinitrophenylhydrazono)estrone-17-oxime]: the IC50 in test [1] is 3310 nM; in test [3] (A549, read-out: A549 PIC50) it was 15.8 µM. The “pFib - bFGF” value in the test with Pulmonary fibroblasts came out at 17 ± 14.
Consider `COc1ccc(CO/N=C2\C[C@@H]3[C@H](CC[C@]4(C)/C(=N/O)CC[C@@H]34)c3cc(OC)c(O)cc32)cc1` [CP-DM-4-6, 2-methoxy-6-(4-methoxybenzyloxy)-iminoestrone-17-oxime], for which the IC50 in test [1] (setting [5]) was 117 nM; at Estrogen Receptor (ER) it was 45.7 µM; in test [2], 2.29 µM; in test [3] (setting [6]), 7.76 µM. Further, the “HASM- Thr pIC25” value in test [1] turned out to be 9.57. The “HASM- Thr pIC75” value in test [1] turned out to be 4.94. Further, the “HASM - GM-CSF” value in test [4] is given as 28 ± 10*.
On to `COc1cc2c(cc1O)/C(=N/OCc1ccncc1)C[C@@H]1[C@@H]2CC[C@]2(C)/C(=N/O)CC[C@@H]12` [CP-DM-4-15, 2-methoxy-6-(4-pyridylmethyloxy)iminoestrone-17-oxime], for which the IC50 is 3390 nM in test [1] (setting [5]), 12.6 µM on Estrogen Receptor (ER) and 10 µM in test [2]. In addition, the “HASM - GM-CSF” value in test [4] was 34 ± 11*.
In the case of `COc1ccc(CO/N=C2\CC[C@H]3[C@@H]4CCc5cc(O)ccc5[C@H]4CC[C@]23C)cc1` [CP-DM-4-33, estrone-17-(4-methoxybenzyl)oxime], the IC50 in test [1] (setting [5]) is 1350 nM; on Estrogen Receptor (ER) it was 0.11 µM; in test [2], 3.16 µM; in test [3] (setting [6]), 9.12 µM. Further, the “HASM- Thr pIC25” value in test [1] worked out at 7.12. Moreover, in test [1], the “HASM- Thr pIC75” value was found to be 5.03.
Regarding `COc1cc2c(cc1O)/C(=N/OCc1ccc(C#N)cc1)C[C@@H]1[C@@H]2CC[C@]2(C)/C(=N/O)CC[C@@H]12` [CP-DM-4-38, 6-(4-cyanobenzyloxy)imino-2-methoxyestrone-17-oxime], in test [1], the “HASM- Thr pIC25” value came out at 4.00 and the “HASM- Thr pIC75” value is 4.00. Also, in the test with Pulmonary fibroblasts, the “pFib - bFGF” value was 26 ± 26.
As for `COc1cc2c(cc1O)/C(=N/OCc1ccc(SC(F)(F)F)cc1)C[C@@H]1[C@@H]2CC[C@]2(C)/C(=N/O)CC[C@@H]12` [CP-DM-4-69, 2-methoxy-6-(4-trifluoromethylthiobenzyloxy)iminoestrone-17-oxime], in test [1], the “HASM- Thr pIC25” value worked out at 4.00 and the “HASM- Thr pIC75” value came out at 4.00. The “pFib - bFGF” value in the test with Pulmonary fibroblasts is on record as 87 ± 13*.
